According to PMC6788984, “High-potency ligands for DREADD imaging and activation in rodents and monkeys” (Nature Communications, 2019):
Several values for one entry are separate records, joined by “and”; a condition that tells them apart may be missing. Equal entries are not always repeated. Entries after “also recorded” stand apart in the source; their conditions may differ. Where two headings read alike, the source gives them in different places.

Columns and labels:
[1] = test system: 5-HT receptors; assay: Binding and enzyme target profile screen (Eurofins); details: competitive binding screen
Protocol: These experiments were performed by an outside vendor (Eurofins, France). […] In each experiment, the respective reference compound was tested concurrently with the test compound to assess the assay reliability. […] Following incubation, the samples were filtered rapidly under vacuum through glass fiber filters presoaked in a buffer and rinsed several times with an ice-cold buffer using a 48-sample or 96-sample cell harvester. The filters were counted for radioactivity in a scintillation counter using a scintillation cocktail.

[2] = Brain and serum concentrations in mice after IP injection (LC-MS/MS); format: in vivo, mouse; details: for Kp: C57BL/6J, mouse, brain/serum, ip, 0.1 mg kg-1, mice, read-out: brain/serum concentration ratio; for Kp / brain to serum concentration ratio / brain concentration, mean / serum concentration, mean: 0.1 mg kg-1 IP; for brain to serum concentration ratio: 30 min; for brain/serum concentration ratio: 1 mg kg-1 IP
Protocol: Monkey blood and CSF samples were collected from totally implanted subcutaneous access ports (Access Technologies, Virginia), connected to catheters indwelling in the femoral artery or intrathecal space of the spinal column, respectively. Rodent blood samples and brains were collected immediately following sacrifice at the indicated time points after intraperitoneal injection (10 ml kg^−1) in buffered saline. CSF was immediately frozen on dry ice and stored at −80 °C. Blood samples were allowed to coagulate for 15 min and then centrifuged at 4 °C for 15 min. Serum was collected from the supernatant and stored at a minimum of −30 °C until extraction. To 25 µl of serum, 5 µl of internal standard and 110 µl of methanol were added. Samples were centrifuged for 10 min at 16,200×g at 4 °C and the supernatant was transferred to the autosampler vial for analysis. Brains were cut in half and weighed prior to sample preparation. Half brains were homogenized in 490 µl of 85% ethanol: 15% water containing 0.1% formic acid and 5 µl of internal standard using a polytron homogenizer and centrifuged for 10 min at 16,200×g at 4 °C. A 300 µl of supernatant was dried under a stream of nitrogen and resuspended in 150 µl methanol. The resuspended solution was then centrifuged and 100 µl of supernatant was transferred to the autosampler vial for analysis.
Data were acquired using a Nexera XR HPLC (Shimadzu) coupled with a QTRAP 6500 (SCIEX), and was analyzed with Analyst 1.6 (SCIEX). The positive-ion mode data were obtained using multiple reaction monitoring (MRM). The instrumental source setting for curtain gas, ion spray voltage, temperature, ion source gas 1, and ion source gas 2 were 30 psi, 5500 V, 500 C, […], respectively.
Mobile phase A consisted of water containing 0.1% formic acid and mobile phase B was methanol containing 0.1% formic acid. […] The injection volume per sample was 10 μl. Samples were kept at 4 °C in the autosampler tray prior to injection.
The data were measured using standard curves and quality controls, but it was not validated to ICH guidelines. […] Quality control standards (low, middle and high) were prepared by adding the spiking standard to solution to 25 μl of serum and/or a half-brain and relative values are reported.

[3] = test system: endogenous clozapine-binding sites; assay: Autoradiography: displacement of [3H]clozapine in WT / non-DREADD mouse brain tissue; details: individual values
Description: Flash frozen tissue (both rodents and the monkey) was sectioned (20 µm) on a cryostat (Leica, Germany) and thaw mounted onto ethanol-washed glass slides. […] Slides were air dried and placed in a Hypercassette™ (Amersham Biosciences) and covered with a BAS-TR2025 Storage Phosphor Screen (FujiFilm, Japan). The slides were exposed to the screen for 5–7 days and imaged using a phosphor imager (Typhoon FLA 7000; GE Healthcare).

[4] = test system: untransfected HEK-293 cells; assay: Negative controls of the functional assays: HEK-293 cells without DREADD; format: cell-based, human; details: for functional response, BRET (Go-alpha-Rluc8, beta1, gamma2-mVenus), no DREADD / functional response, GCaMP6f, no DREADD: HEK-293 cells
Protocol: BRET assays were performed to detect receptor ligand-induced Gαo1 protein activation. […] Forty-eight hour after transfection cells were harvested, washed and resuspended in phosphate-buffered saline (PBS). Approximately, 200,000 cells/well were distributed in 96-well plates, and 5 µM Coelenterazine H (substrate for luciferase) was added to each well. Five minutes after addition of Coelenterazine H, ligands were added to each well. The fluorescence of the acceptor was quantified (excitation at 500 nm and emission at 540 nm for 1-s recordings) in a PheraStar FSX plate reader (BMG Labtech) to confirm the constant expression levels across experiments. In parallel, the BRET signal from the same batch of cells was determined as the ratio of the light emitted by mVenus (510–540 nm) over that emitted by RLuc (485 nm). Results were calculated for the BRET change (BRET ratio for the corresponding drug minus BRET ratio in the absence of the drug) 5 min after the addition of the ligands.
Intracellular Ca^2+ concentration was monitored using the fluorescent Ca^2+ biosensor GCaMP6f. HEK-293 cells were transfected with 7 µg/dish of the cDNA encoding for hM3Dq (Addgene #89149) or hM4Di (Addgene #89150) and 7 µg/dish of GCaMP6. Forty-eight hours after transfection, cells were harvested, washed, resuspended in Mg^2+-free Locke’s buffer pH 7.4 (154 mM NaCl, 5.6 mM KCl, 3.6 mM NaHCO3, 2.3 mM CaCl2, and 5 mM HEPES) containing 5.6 mM of glucose and approximately 200,000 cells/well were distributed in black 96-well plates. Increasing concentrations of the indicated compound were added to the cells and fluorescence intensity (excitation at 480 nm, emission at 530 nm) was measured at 18-s intervals during 250 s using a PHERAstar FSX (BMG Labtech). The net change in intracellular Ca^2+ concentration was expressed as F − F0 where F is the fluorescence at a given concentration of ligand and F0 is the average of the baseline values (fluorescence values of buffer-treated wells).

[5] = test system: WT mice; assay: [18F]FDG PET metabolic mapping in WT mice; format: in vivo, mouse
Protocol: Mice (D1-hM3Dq, D1-hM4Di or WT littermates, see above) were habituated to experimenter handling and fasted 16 h before the experiment. On the day of the experiment, mice received an IP injection of vehicle (1 ml kg^−1) and were placed back into their home cages. Ten minutes later, mice were injected (IP) with 11 MBq of 2-deoxy-2-[^18F]fluoro-D-glucose (FDG, Cardinal Health) and placed back into their home cages. After 30 min, mice were anesthetized with 1.5% isoflurane, placed on a custom-made bed of a nanoScan small animal PET/CT scanner (Mediso Medical Imaging Systems) and scanned for 20 min on a static acquisition protocol, followed by a CT scan. […] Voxel-based repeated measures with Student’s t test comparing baseline to drug were performed, and the resulting parametric images were filtered for statistically significant (p < 0.05) clusters larger than 100 contiguous voxels. All statistical parametric mapping analyses were performed using Matlab R2016 (Mathworks) and SPM12 (University College London).

| SMILES | affinity at 5-HT receptors relative to clozapine [1] | Kp ([2]; time 10) | Kp ([2]; time 30) | Kp ([2]; time 60) | Kp ([2]; time 120) | Kp ([2]; time 240) | brain to serum concentration ratio ([2]; mice) | brain concentration, mean ([2]; mice, time 10) | serum concentration, mean ([2]; mice, time 10) | brain concentration, mean ([2]; mice, time 30) | serum concentration, mean ([2]; mice, time 30) | brain concentration, mean ([2]; mice, time 60) | serum concentration, mean ([2]; mice, time 60) | brain concentration, mean ([2]; mice, time 120) | serum concentration, mean ([2]; mice, time 120) | brain concentration, mean ([2]; mice, time 240) | serum concentration, mean ([2]; mice, time 240) | functional response in HEK-293 cells lacking DREADDs [4] | functional response, BRET (Go-alpha-Rluc8, beta1, gamma2-mVenus), no DREADD [4] | functional response, GCaMP6f, no DREADD [4] | also measured |
| --- | --- | --- | --- | --- | --- | --- | --- | --- | --- | --- | --- | --- | --- | --- | --- | --- | --- | --- | --- | --- | --- |
| CCN1CCN(C2=Nc3cc(Cl)ccc3Nc3c(F)cccc32)CC1 [JHU37160, 8-Chloro-11-(4-ethylpiperazin-1-yl)-4-fluoro-5H-dibenzo[b,e][1,4]diazepine] | lower affinity than clozapine | 6.45 | 8.48 | 12.9 | 9.72 | 15.4 | ~eightfold higher in the brain than serum | 15.2721 | 2.637 | 9.242 | 1.58 | 8.73 | 0.7534 | 8.1596 | 0.8413 | 3.199 | 0.319 | no responses were observed; also recorded: did not produce any agonistic effect | did not show any functional response | did not show any functional response | [3H]CLZ binding in mouse brain sections, WT ([3]; competitor concentration 0.001, listed as J60): 106.379 and 101.292 and 102.926 and 122.941 and 108.508 and 97.311; [3H]CLZ binding in mouse brain sections, WT ([3]; competitor concentration 0.01, listed as J60): 120.43 and 105.789 and 111.318 and 118.633 and 118.689 and 124.215; [3H]CLZ binding in mouse brain sections, WT ([3]; competitor concentration 1, listed as J60): 55.5737 and 82.7293 and 46.5386 and 44.7797 and 54.5308 and 62.9299; brain metabolic activity ([18F]FDG) ([5]; 0.1 mg/kg): no significant brain metabolic changes; brain metabolic activity ([18F]FDG) ([5]; 0.1 mg/kg, listed as J60, 0.1 mg/kg): did not show any significant changes in brain metabolic activity |
| c1ccc2c(c1)N=C(N1CCNCC1)c1ccccc1N2 [C21] |  |  |  |  |  |  |  |  |  |  |  |  |  |  |  |  |  | Neither clozapine nor C21 produced detectable functional responses | did not show any functional response | did not show any functional response | brain/serum concentration ratio ([2]; mice, time 10): 0.1059; brain/serum concentration ratio ([2]; mice, time 30): 0.2543; brain/serum concentration ratio ([2]; mice, time 60): 0.2987; brain/serum concentration ratio ([2]; mice, time 120): 0.4106; brain/serum concentration ratio ([2]; mice, time 240): 0.6284; brain/serum ratio ([2]; mice, systemic administration): low brain/serum ratios; brain metabolic activity ([18F]FDG) ([5]; 1 mg/kg IP, 1 mg/kg): significant changes in brain metabolic activity; brain metabolic activity ([18F]FDG) ([5]; 1 mg/kg IP, listed as Compound 21, 1 mg/kg): decreased metabolic activity of multiple networks |
| CCN1CCN(C2=Nc3cc(Cl)ccc3Nc3cccc(F)c32)CC1 [JHU37152, 8-Chloro-11-(4-ethylpiperazin-1-yl)-1-fluoro-5H-dibenzo[b,e][1,4]diazepine] | lower affinity than clozapine | 3.52 | 6.76 | 5.99 | 4.52 | 3.05 | ~eightfold higher in the brain than serum | 58.5075 | 16.6091 | 52.9484 | 6.63 | 40.9216 | 6.9214 | 7.985 | 2.387 | 2.907 | 1.533 | no responses were observed; also recorded: did not produce any agonistic effect | did not show any functional response | did not show any functional response | [3H]CLZ binding in mouse brain sections, WT ([3]; competitor concentration 0.001, listed as J52): 119.578 and 91.3526 and 103.192 and 105.979 and 100.87 and 101.941; [3H]CLZ binding in mouse brain sections, WT ([3]; competitor concentration 0.01, listed as J52): 85.3632 and 98.6721 and 100.487 and 96.5233 and 115.016 and 88.1843; [3H]CLZ binding in mouse brain sections, WT ([3]; competitor concentration 1, listed as J52): 68.3087 and 51.6943 and 71.7816 and 75.1729 and 78.8993 and 70.8806 |
